Source: article PMC11026403 (Communications Biology, 2024)

Biological target: A/Denmark/528/2009 (H1N1)pdm09 NA-H274Y (Influenza A virus, UniProt C3W5S3, H275Y)
Assay type: biochemical, Influenza A virus A/Denmark/528/2009 (H1N1)pdm09

SMILES	NAI susceptibility classification (WHO guidance)	IC50 [nM]
CCC(CC)O[C@@H]1C=C(C(=O)O)C[C@H](N)[C@H]1NC(C)=O [oseltamivir, oseltamivir carboxylate]	highly reduced inhibition (key: <10-fold, normal inhibition; 10–100 fold, reduced inhibition; >100-fold, highly reduced inhibition)	–
CCC(CC)[C@H](NC(C)=O)[C@@H]1[C@H](O)[C@@H](C(=O)O)C[C@H]1N=C(N)N [peramivir]	highly reduced inhibition (key: <10-fold, normal inhibition; 10–100 fold, reduced inhibition; >100-fold, highly reduced inhibition)	23.5
